Assays:
CFTR = biological target: T1, CFTR (Homo sapiens, UniProt P13569, DEL508-508); assay: TECC24 AUC fold over DMSO @10 μM, CFTR-mediated transepithelial chloride transport in CF-HBE cells; format: cell-based; details: test agent AUC divided by DMSO vehicle AUC, primary CF-HBE cells, ΔF508 homozygous donor, 48 hours incubation
T1 construct: Primary human bronchial epithelial cells from a ΔF508 homozygous CF donor; host or cells: primary human bronchial epithelial cells (CF-HBE), ΔF508 homozygous donor
How it was run: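 Value is ratio of test-agent to DMSO AUC of equivalent transepithelial Cl− current, integrated from forskolin (10 μM) stimulation to CFTR inhibitor-172 (20 μM) block, with benzamil 10 μM present. CF-HBE (ΔF508/ΔF508) cultures had 48 h compound exposure at 10 μM, 36.5° C before recording.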

NBD1 = biological target: T2, NBD1 (Homo sapiens, UniProt P13569); assay: Aggregation analysis using differential static light scattering (DSLS), thermal stability of NBD1 (ΔTagg); format: binding; details: ΔTagg versus DMSO control, NBD1 0.2 mg/ml
T2 construct: Purified recombinant NBD1 was produced using previously described methods; made in house
How it was run: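 Differential static light scattering read from 25° C. to 70° C. every 0.5° C., ramp 1° C./min, on recombinant NBD1 (0.2 mg/ml; Tris/NaCl/MgCl2 buffer with 2 mM ATP, 2 mM DTT, pH 7.6, 1% glycerol) plus compound. Reported ΔTagg subtracts averaged DMSO Tagg from inflection-point Tagg; categories A ≤5, B >5-10, C >10-25° C.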

T1 sequence (P13569 with tags, fused parts or gaps DEL508-508): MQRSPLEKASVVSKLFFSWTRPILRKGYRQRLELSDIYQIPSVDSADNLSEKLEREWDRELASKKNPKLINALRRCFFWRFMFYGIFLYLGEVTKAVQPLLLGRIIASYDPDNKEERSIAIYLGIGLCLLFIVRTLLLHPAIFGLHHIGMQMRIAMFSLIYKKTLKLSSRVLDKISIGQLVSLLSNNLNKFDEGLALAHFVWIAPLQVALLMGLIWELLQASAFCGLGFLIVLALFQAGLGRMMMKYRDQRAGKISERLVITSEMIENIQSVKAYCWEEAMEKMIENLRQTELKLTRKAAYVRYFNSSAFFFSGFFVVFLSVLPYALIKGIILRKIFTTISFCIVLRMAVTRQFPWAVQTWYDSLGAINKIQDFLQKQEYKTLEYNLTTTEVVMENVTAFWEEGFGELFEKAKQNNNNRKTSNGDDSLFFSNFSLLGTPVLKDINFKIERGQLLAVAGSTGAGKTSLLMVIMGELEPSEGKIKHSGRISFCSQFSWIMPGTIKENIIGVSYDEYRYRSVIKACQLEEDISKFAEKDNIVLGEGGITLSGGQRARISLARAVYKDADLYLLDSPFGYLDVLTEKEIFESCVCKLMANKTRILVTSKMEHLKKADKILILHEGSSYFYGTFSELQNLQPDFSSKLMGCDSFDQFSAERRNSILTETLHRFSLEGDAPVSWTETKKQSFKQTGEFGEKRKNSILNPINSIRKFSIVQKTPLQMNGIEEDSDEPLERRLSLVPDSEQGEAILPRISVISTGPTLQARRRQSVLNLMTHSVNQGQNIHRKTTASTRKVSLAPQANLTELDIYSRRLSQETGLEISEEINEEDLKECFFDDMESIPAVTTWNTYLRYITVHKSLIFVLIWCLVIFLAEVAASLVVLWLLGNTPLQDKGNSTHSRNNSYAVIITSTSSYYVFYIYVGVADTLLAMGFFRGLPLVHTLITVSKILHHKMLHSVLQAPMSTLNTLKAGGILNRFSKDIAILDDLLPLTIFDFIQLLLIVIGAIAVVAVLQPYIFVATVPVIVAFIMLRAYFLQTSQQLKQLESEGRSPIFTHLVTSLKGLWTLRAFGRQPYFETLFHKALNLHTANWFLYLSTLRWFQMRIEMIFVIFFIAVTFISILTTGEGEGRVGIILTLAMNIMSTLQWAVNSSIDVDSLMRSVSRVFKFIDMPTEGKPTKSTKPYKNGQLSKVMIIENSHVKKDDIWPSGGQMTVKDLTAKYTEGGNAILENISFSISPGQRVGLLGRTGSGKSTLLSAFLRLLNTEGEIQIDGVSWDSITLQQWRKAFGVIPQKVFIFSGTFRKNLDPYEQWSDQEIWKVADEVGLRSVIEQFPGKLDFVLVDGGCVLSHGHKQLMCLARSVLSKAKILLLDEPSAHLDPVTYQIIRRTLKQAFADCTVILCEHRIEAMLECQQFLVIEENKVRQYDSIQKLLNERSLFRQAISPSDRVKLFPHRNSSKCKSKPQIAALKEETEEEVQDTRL
T2 sequence (P13569 423-646 limits assumed): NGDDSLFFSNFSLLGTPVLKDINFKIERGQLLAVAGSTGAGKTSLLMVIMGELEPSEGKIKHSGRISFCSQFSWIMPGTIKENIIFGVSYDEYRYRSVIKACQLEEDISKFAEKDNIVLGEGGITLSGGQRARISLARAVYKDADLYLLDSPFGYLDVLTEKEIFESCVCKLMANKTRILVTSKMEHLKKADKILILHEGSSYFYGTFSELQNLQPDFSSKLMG

| SMILES | TECC (AUC, 10 μM) (CFTR) | DSLS 3D (100 μM ΔT) (NBD1) |
| --- | --- | --- |
| Cn1nc2nc1-c1cc(ccc1F)Oc1c(F)cc3[nH]ccc3c1Cc1ccn(n1)CCS(=O)(=O)CCC2(C)c1cccc(CCC(=O)O)c1 (single isomer, unassigned) [Compound 100B, 3-[3-(24,30-difluoro-3,6-dimethyl-9,9-dioxo-26-oxa-9λ6-thia-3,4,12,21,32,33-hexazahexacyclo[25.3.1.12,5.112,15.017,25.018,22]tritriaconta-1(31),2(33),4,13,15(32),17,19,22,24,27,29-undecaen-6-yl)phenyl]propanoic Acid] | A (a TECC value less than 12 is marked “A”) | A (an ΔTagg value less than or equal to 5 °C is marked “A”) |
| Cc1c2nnn1Cc1c(c(F)cc3[nH]ccc13)Oc1ccc(F)c(c1)-c1nc(nn1C)C(C)(c1cccc(CCC(=O)O)c1)CCS(=O)(=O)C2 (single isomer, unassigned) [Compound 101A, 3-[3-(23,29-difluoro-3,6,31-trimethyl-9,9-dioxo-25-oxa-9lambda6-thia-3,4,12,13,14,20,32-heptazahexacyclo[24.3.1.12,5.111,14.016,24.017,21]-dotriaconta-1(30),2(32),4,11(31),12,16,18,21,23,26,28-undecaen-6-yl)phenyl]propanoic Acid] | A (a TECC value less than 12 is marked “A”) | A (an ΔTagg value less than or equal to 5 °C is marked “A”) |
| Cc1c2nnn1Cc1c(c(F)cc3[nH]ccc13)Oc1ccc(F)c(c1)-c1nc(nn1C)C(C)(c1cccc(CCC(=O)O)c1)CCS(=O)(=O)C2 (single isomer, unassigned) [Compound 101B, 3-[3-(23,29-difluoro-3,6,31-trimethyl-9,9-dioxo-25-oxa-9lambda6-thia-3,4,12,13,14,20,32-heptazahexacyclo[24.3.1.12,5.111,14.016,24.017,21]-dotriaconta-1(30),2(32),4,11(31),12,16,18,21,23,26,28-undecaen-6-yl)phenyl]propanoic Acid] | A (a TECC value less than 12 is marked “A”) | B (a value above 5 °C and less than or equal to 10 °C is marked “B”) |
| Cn1nc2nc1-c1cc(ccc1F)Oc1c(F)cc3[nH]ccc3c1CCS(=O)(=O)CC(F)(F)C(C)(C)CCC2(C)c1cccc(CCC(=O)O)c1 (single isomer, unassigned) [Compound 102A, 3-[3-[10,10,22,28-tetrafluoro-3,6,9,9-tetramethyl-12,12-dioxo-24-oxa-12lambda6-thia-3,4,19,30-tetrazapentacyclo[23.3.1.12,5.015,23.016,20]-triaconta-1(29),2(30),4,15,17,20,22,25,27-nonaen-6-yl]phenyl]propanoic Acid] | A (a TECC value less than 12 is marked “A”) | A (an ΔTagg value less than or equal to 5 °C is marked “A”) |
| Cn1nc2nc1-c1cc(ccc1F)Oc1c(F)cc3[nH]ccc3c1CCS(=O)(=O)CC(F)(F)C(C)(C)CCC2(C)c1cccc(CCC(=O)O)c1 (single isomer, unassigned) [Compound 102B, 3-[3-[10,10,22,28-tetrafluoro-3,6,9,9-tetramethyl-12,12-dioxo-24-oxa-12lambda6-thia-3,4,19,30-tetrazapentacyclo[23.3.1.12,5.015,23.016,20]triaconta-1(29),2(30),4,15,17,20,22,25,27-nonaen-6-yl]phenyl]propanoic acid] | B (a value between 12-20 is marked “B”) | B (a value above 5 °C and less than or equal to 10 °C is marked “B”) |
| CC(Cc1cccc(C2(CF)CCCC(C)(C)CS(=O)(=O)CCc3c(c(F)cc4[nH]ccc34)Oc3ccc(F)c(c3)-c3nc2nn3C)c1)C(=O)O (single isomer, unassigned) [Compound 108A, 3-[3-[22,28-difluoro-6-(fluoromethyl)-3,10,10-trimethyl-12,12-dioxo-24-oxa-12λ6-thia-3,4,19,30-tetrazapentacyclo[23.3.1.12,5.015,23.016,20]triaconta-1(29),2(30),4,15,17,20,22,25,27-nonaen-6-yl]phenyl]-2-methyl-propanoic acid] | A (a TECC value less than 12 is marked “A”) | A (an ΔTagg value less than or equal to 5 °C is marked “A”) |
| CC(Cc1cccc(C2(CF)CCCC(C)(C)CS(=O)(=O)CCc3c(c(F)cc4[nH]ccc34)Oc3ccc(F)c(c3)-c3nc2nn3C)c1)C(=O)O (single isomer, unassigned) [Compound 108B, 3-[3-[22,28-difluoro-6-(fluoromethyl)-3,10,10-trimethyl-12,12-dioxo-24-oxa-12λ6-thia-3,4,19,30-tetrazapentacyclo[23.3.1.12,5.015,23.016,20]triaconta-1(29),2(30),4,15,17,20,22,25,27-nonaen-6-yl]phenyl]-2-methyl-propanoic acid] | C (a value between 20 and 80 is marked “C”) | A (an ΔTagg value less than or equal to 5 °C is marked “A”) |
| Cn1nc2nc1-c1cc(ccc1F)Oc1c(F)cc3[nH]ccc3c1Cn1cc(cn1)C(C)(C)CS(=O)(=O)CCC2(C)c1cccc(CCC(=O)O)c1 (single isomer, unassigned) [Compound 109A, 3-[3-(24,30-difluoro-3,6,11,11-tetramethyl-9,9-dioxo-26-oxa-9lambda6-thia-3,4,14,15,21,33-hexazahexacyclo[25.3.1.12,5.112,15.017,25.018,22]tritriaconta-1(31),2(33),4,12(32),13,17,19,22,24,27,29-undecaen-6-yl)phenyl]propanoic Acid] | C (a value between 20 and 80 is marked “C”) | C (a value greater than 10 °C and less than or equal to 25 °C is marked “C”) |
| Cn1nc2nc1-c1cc(ccc1F)Oc1c(F)cc3[nH]ccc3c1Cn1cc(cn1)C(C)(C)CS(=O)(=O)CCC2(C)c1cccc(CCC(=O)O)c1 (single isomer, unassigned) [Compound 109B, 3-[3-(24,30-difluoro-3,6,11,11-tetramethyl-9,9-dioxo-26-oxa-9lambda6-thia-3,4,14,15,21,33-hexazahexacyclo[25.3.1.12,5.112,15.017,25.018,22]tritriaconta-1(31),2(33),4,12(32),13,17,19,22,24,27,29-undecaen-6-yl)phenyl]propanoic Acid] | A (a TECC value less than 12 is marked “A”) | A (an ΔTagg value less than or equal to 5 °C is marked “A”) |
| CC(Cc1cccc(C2(C)COCC(C)(C)CS(=O)(=O)CCc3c(c(F)cc4[nH]ccc34)Oc3ccc(F)c(c3)-c3nc2nn3C)c1)C(=O)O (single isomer, unassigned) [Compound 113A] | A (a TECC value less than 12 is marked “A”) | C (a value greater than 10 °C and less than or equal to 25 °C is marked “C”) |
| CC(Cc1cccc(C2(C)COCC(C)(C)CS(=O)(=O)CCc3c(c(F)cc4[nH]ccc34)Oc3ccc(F)c(c3)-c3nc2nn3C)c1)C(=O)O (single isomer, unassigned) [Compound 113B] | A (a TECC value less than 12 is marked “A”) | A (an ΔTagg value less than or equal to 5 °C is marked “A”) |
| [2H]C([2H])([2H])C1(c2cccc(CC(C)C(=O)O)c2)COCC(C)(C)CS(=O)(=O)CCc2c(c(F)c(F)c3[nH]ccc23)Oc2ccc(F)c(c2)-c2nc1nn2C (single isomer, unassigned) [Compound 118A, 2-methyl-3-[3-[21,22,28-trifluoro-3,10,10-trimethyl-12,12-dioxo-6-(trideuteriomethyl)-8,24-dioxa-12λ6-thia-3,4,19,30-tetrazapentacyclo[23.3.1.12,5.015,23.016,20]triaconta-1(29),2(30),4,15,17,20,22,25,27-nonaen-6-yl]phenyl]propanoic acid] | A (a TECC value less than 12 is marked “A”) | C (a value greater than 10 °C and less than or equal to 25 °C is marked “C”) |
| [2H]C([2H])([2H])C1(c2cccc(CC(C)C(=O)O)c2)COCC(C)(C)CS(=O)(=O)CCc2c(c(F)c(F)c3[nH]ccc23)Oc2ccc(F)c(c2)-c2nc1nn2C (single isomer, unassigned) [Compound 118B, 2-methyl-3-[3-[21,22,28-trifluoro-3,10,10-trimethyl-12,12-dioxo-6-(trideuteriomethyl)-8,24-dioxa-12λ6-thia-3,4,19,30-tetrazapentacyclo[23.3.1.12,5.015,23.016,20]triaconta-1(29),2(30),4,15,17,20,22,25,27-nonaen-6-yl]phenyl]propanoic acid] | A (a TECC value less than 12 is marked “A”) | A (an ΔTagg value less than or equal to 5 °C is marked “A”) |
| [2H]C([2H])([2H])C1(c2cccc(CC(C)C(=O)O)c2)CCC(C)(C)CCS(=O)(=O)CCc2c(c(F)cc3[nH]ccc23)Oc2ccc(F)c(c2)-c2nc1nn2C (single isomer, unassigned) [Compound 119A, 3-[3-[22,28-difluoro-3,9,9-trimethyl-12,12-dioxo-6-(trideuteriomethyl)-24-oxa-12lambda6-thia-3,4,19,30-tetrazapentacyclo[23.3.1.12,5.015,23.016,20]triaconta-1(29),2(30),4,15,17,20,22,25,27-nonaen-6-yl]phenyl]-2-methyl-propanoic acid] | A (a TECC value less than 12 is marked “A”) | A (an ΔTagg value less than or equal to 5 °C is marked “A”) |

Source: patent publication US12649750B2, “Macrocyclic compounds, compositions, and methods of using thereof” (Sionna Therapeutics Inc., priority 2022, dated 2026)
